According to US20070015723A1, “Antiviral oligonucleotides having a conserved G4 core sequence” (priority 1992, published 2007):

Experiments:
[1] = tested on: phospholipase A2 from Agkistrodon piscivorus piscivorus
[2] = tested on: Naja naja naja phospholipase A2

ISIS 3196: GGG T GGG T ATA G AAG G GCT CC, P = S, SEQ ID NO 47 (GGGTGGGTATAGAAGGGCTCC; all phosphorothioate, sugars by position and methylation of C not given here)
IC50 [1]: ~3000 nM | IC50 [2]: > 10000 nM
